pIC50: −log10 of the molar value. In brackets after ≈: the same amount, converted by molar mass. Like-named read-outs stand apart in the source and are kept apart here.
Columns and labels:
[1] = physchem; conditions: pH 7, aqueous buffer, kinetic from dmso stock
Method: Determination of the Kinetic Solubility in Phosphate Buffer
After shaking for approximately 30 seconds the reduction in light transmission of these samples, at 650 nm, was measured (Molecular Devices Spectromax UV/visible spectrophotometer). A second measurement was taken at approximately 30 seconds later.

[2] = Determination of thermodynamic solubility in phosphate buffer; type: physicochemical; conditions: pH 7.4, aqueous buffer, thermodynamic from solid, ammonium phosphate buffer pH7.4, 290 mOsm, 37° C., nominal 1 mg/mL, read-out: Solubility in PO4 buffer
Procedure, shortened: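 Compound at nominal 1 mg/mL in ammonium phosphate buffer (pH7.4, 290 mOsm), shaken 1 h at 37° C., then centrifuged 15,000 g for 10 minutes at 37° C. Supernatant concentration measured by LC-MS/MS against a calibration line from a DMSO stock.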

[3] = biological target: Factor XIIa (Homo sapiens (Human), UniProt P00748); experiment: Determination of enzyme selectivity: Factor XIIa; type: biochemical; conditions: fluorogenic substrate at Km concentration
Method: (§1) Determination of Enzyme Selectivity
Human serine protease enzymes plasmin, thrombin, trypsin, Factor Xa and Factor XIIa were assayed for enzymatic activity using an appropriate fluorogenic substrate. Protease activity was measured by monitoring the accumulation of liberated fluorescence from the substrate over 5 minutes. The linear rate of fluorescence increase per minute was expressed as percentage (%) activity. The Km for the cleavage of each substrate was determined by standard transformation of the Michaelis-Menten equation.

[4] = biological target: Human plasma kallikrein (Homo sapiens (Human), UniProt P03952); experiment: Determination of the IC50 for plasma kallikrein; type: biochemical; conditions: 37° C., read-out: IC50 (human PKal)
Procedure, shortened: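 Residual activity (initial rate, absorbance at 410 nm) gave the IC50. Reactions at 37° C combined human plasma kallikrein, substrate H-DPro-Phe-Arg-AFC and a range of inhibitor concentrations.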

[5] = biological target: thrombin (Homo sapiens (Human), UniProt P00734); experiment: Determination of enzyme selectivity: thrombin; type: biochemical; conditions: substrate at Km
Text: as §1

[6] = biological target: Factor Xa (Homo sapiens (Human), UniProt P00742); experiment: Determination of enzyme selectivity: Factor Xa; type: biochemical; conditions: substrate at Km
Text: as §1

[7] = biological target: Human KLK1 (Homo sapiens (Human), UniProt P06870); experiment: Determination of the IC50 for KLK1; type: biochemical; conditions: Human KLK1, 37° C., substrate H-DVal-Leu-Arg-AFC
Procedure, shortened: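 Test compound at various concentrations was incubated with human KLK1 and the fluorogenic substrate H-DVal-Leu-Arg-AFC at 37° C. Absorbance change at 410 nm gave the initial reaction rate, from which IC50 was obtained.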

[8] = tested on: CA-I stimulated RVP; experiment: Carbonic anhydrase I induced retinal vascular permeability model; type: in vivo, Sprague Dawley rats; conditions: rat
Method: Carbonic Anhydrase I Induced Retinal Vascular Permeability Model
After 30 mins, a second intravitreal injection (5 μL) of PBS or CA-I (200 ng/eye) was given. After 15 minutes, 10% sodium fluorescein was infused and retinal vascular permeability (RVP) was measured by vitreous fluorophotometry 75 minutes following the initial IVT injections.

[9] = Ocular and systemic pharmacokinetics following a single IVT dose; type: in vivo, pigmented (Dutch-belted) rabbits; conditions: rabbit
Method: A pharmacokinetic study of Example 3 was performed to assess the ocular and systemic pharmacokinetics following a single IVT dose in pigmented (Dutch-belted) rabbits. […] Serial blood samples were collected in surviving rabbits.
Ocular tissue concentration data are presented in FIG. 2, in which the solid line for each ocular tissue concentration is the average of the left and right eye of each rabbit.

[10] = biological target: plasmin (Homo sapiens (Human), UniProt P00747); experiment: Determination of enzyme selectivity: plasmin; type: biochemical; conditions: substrate at Km
Text: as §1

Human KLK1, sequence (P06870 25-262): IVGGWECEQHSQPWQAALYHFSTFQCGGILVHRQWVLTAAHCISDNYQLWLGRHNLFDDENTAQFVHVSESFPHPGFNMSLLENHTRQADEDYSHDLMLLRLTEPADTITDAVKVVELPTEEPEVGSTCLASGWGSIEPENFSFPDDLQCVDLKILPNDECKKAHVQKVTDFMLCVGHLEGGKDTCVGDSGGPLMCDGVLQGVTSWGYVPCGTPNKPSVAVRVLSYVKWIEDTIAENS
Human plasma kallikrein, sequence (P03952 391-638): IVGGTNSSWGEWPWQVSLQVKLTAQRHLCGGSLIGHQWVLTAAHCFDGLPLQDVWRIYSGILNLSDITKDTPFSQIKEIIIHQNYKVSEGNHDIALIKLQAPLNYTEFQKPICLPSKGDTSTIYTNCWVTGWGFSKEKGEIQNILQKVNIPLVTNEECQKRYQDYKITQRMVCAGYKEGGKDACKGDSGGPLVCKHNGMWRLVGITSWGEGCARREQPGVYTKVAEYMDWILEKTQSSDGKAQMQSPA
Human plasma kallikrein, sequence (P03952 20-390 partner): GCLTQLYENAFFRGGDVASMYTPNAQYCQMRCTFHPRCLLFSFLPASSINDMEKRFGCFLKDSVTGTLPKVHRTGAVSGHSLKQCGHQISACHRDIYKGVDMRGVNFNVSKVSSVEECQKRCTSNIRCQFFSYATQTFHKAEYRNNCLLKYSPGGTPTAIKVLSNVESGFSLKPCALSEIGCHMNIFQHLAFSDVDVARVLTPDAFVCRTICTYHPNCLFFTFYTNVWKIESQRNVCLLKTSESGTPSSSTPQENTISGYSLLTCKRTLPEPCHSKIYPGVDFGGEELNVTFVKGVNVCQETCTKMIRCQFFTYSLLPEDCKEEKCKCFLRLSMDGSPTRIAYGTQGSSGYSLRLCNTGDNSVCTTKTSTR
Factor XIIa, sequence (P00748 373-615): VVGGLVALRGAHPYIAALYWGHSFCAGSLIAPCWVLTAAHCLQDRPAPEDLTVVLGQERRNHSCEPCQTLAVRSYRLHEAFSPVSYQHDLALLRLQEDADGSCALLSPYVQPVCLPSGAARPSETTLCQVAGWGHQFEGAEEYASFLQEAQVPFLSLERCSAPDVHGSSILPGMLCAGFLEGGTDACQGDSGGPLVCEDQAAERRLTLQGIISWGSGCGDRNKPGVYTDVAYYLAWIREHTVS
Factor Xa, sequence (P00742 235-488): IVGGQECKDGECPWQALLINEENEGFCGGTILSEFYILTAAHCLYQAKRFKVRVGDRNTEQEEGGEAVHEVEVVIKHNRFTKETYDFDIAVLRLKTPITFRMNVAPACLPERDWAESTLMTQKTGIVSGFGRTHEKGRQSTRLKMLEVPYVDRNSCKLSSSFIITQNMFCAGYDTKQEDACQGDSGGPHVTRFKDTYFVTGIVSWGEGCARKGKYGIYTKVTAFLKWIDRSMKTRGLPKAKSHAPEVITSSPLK
Factor Xa, sequence (P00742 41-179 partner): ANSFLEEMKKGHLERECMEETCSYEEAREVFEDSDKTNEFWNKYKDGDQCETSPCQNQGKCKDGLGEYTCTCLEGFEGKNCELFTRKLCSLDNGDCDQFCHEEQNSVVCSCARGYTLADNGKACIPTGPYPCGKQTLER
plasmin, sequence (P00747 whole entry, looked up, change not shown): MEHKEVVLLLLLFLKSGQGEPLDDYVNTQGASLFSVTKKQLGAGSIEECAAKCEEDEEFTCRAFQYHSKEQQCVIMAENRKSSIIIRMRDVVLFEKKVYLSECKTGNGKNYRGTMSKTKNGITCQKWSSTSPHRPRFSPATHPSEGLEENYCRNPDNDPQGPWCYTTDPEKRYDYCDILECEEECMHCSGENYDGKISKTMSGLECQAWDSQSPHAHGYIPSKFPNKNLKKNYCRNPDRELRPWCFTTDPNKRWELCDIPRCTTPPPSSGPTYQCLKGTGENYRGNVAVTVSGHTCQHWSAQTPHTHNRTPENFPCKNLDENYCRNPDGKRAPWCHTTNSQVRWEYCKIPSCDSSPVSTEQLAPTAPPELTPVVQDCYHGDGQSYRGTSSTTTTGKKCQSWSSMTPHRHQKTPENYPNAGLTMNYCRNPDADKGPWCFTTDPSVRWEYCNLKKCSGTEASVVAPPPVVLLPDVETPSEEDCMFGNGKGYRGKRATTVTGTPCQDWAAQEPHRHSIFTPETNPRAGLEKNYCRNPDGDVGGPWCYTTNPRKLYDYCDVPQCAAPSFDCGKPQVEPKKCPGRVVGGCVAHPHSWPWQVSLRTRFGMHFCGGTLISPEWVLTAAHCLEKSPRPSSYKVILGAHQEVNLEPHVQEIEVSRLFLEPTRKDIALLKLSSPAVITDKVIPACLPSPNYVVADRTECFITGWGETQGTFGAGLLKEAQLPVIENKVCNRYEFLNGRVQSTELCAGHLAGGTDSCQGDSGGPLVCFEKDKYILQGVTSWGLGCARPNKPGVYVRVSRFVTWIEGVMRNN
plasmin, sequence (P00747 whole entry partner, looked up): as the sequence (P00747 whole entry, looked up, change not shown) above

| Compound | solubility at 1 h [2] | pIC50 [3] | pIC50 ([4]; substrate H-DPro-Phe-Arg-AFC) | pIC50 ([7]; Table 13) | further results |
| --- | --- | --- | --- | --- | --- |
| CCOc1ccc(C[C@@H](NC(=O)c2ccccc2)C(=O)N[C@@H](Cc2ccccc2)C(=O)NCc2ccc(CN)cc2)cc1 [Example 3, N—[(R)-1-[(S)-1-(4-Aminomethyl-benzylcarbamoyl)-2-phenyl-ethylcarbamoyl]-2-(4-ethoxy-phenyl)-ethyl]-benzamide] | 10 µg/mL (≈ 17.3 µM) | < 5.00 |  |  | solubility [1]: 12 µM (≈ 6.94 µg/mL); pIC50 ([4]; fluorogenic substrate H-DPro-Phe-Arg-AFC): 7.66; pIC50 [5]: < 4.40; pIC50 [6]: < 5.00; pIC50 ([7]; Table 12): < 5.00; reduction of RVP stimulated by CA-I injection ([8]; intravitreal injection 1 μM (5 μL), CA-I 200 ng/eye, RVP measured at 75 minutes): 53±21%; basal RVP ([8]; intravitreal injection of 1 μM alone (no CA-I), PBS alone 3.64±0.48, no effect): 3.29±0.21; decline in ocular tissue concentrations ([9]; IVT 210 ng per eye, vitreous, retina/choroid, aqueous humour, over 7 days): minimal; Plasma concentrations following IVT administration ([9]; single bilateral IVT 210 ng per eye, all time points): below 1 ng/mL; pIC50 [10]: 5.46 |
| CCOc1ccc(C[C@@H](NC(=O)c2sccc2NC(C)=O)C(=O)N[C@@H](Cc2csc3ccccc23)C(=O)NCc2ccc(CN)cc2)cc1 [Example 195, 3-Acetylamino-thiophene-2-carboxylic acid [(R)-1-[(S)-1-(4-aminomethyl-benzylcarbamoyl)-2-benzo[b]thiophen-3-yl-ethylcarbamoyl]-2-(4-ethoxy-phenyl)-ethyl]-amide] |  | < 5.00 | 7.85 | < 5.00 |  |
| CCOc1ccc(C[C@@H](NC(=O)c2ccccc2)C(=O)N[C@H](C(=O)NCc2ccc(CN)cc2)[C@H](O)c2ccccc2)cc1 [Example 197, N-[(R)-1-[(1S,2R)-1-(4-Aminomethyl-benzylcarbamoyl)-2-hydroxy-2-phenyl-ethylcarbamoyl]-2-(4-ethoxy-phenyl)-ethyl]-benzamide] |  | < 5.00 | 7.92 | < 5.00 |  |
| CCOc1ccc(C[C@@H](NC(=O)c2ccc(C)cc2)C(=O)N[C@@H](Cc2cccnc2)C(=O)NCc2ccc(CN)cc2)cc1 [Example 199, N—[(R)-1-[(S)-1-(4-Aminomethyl-benzylcarbamoyl)-2-pyridin-3-yl-ethylcarbamoyl]-2-(4-ethoxy-phenyl)-ethyl]-4-methyl-benzamide] | 15.9 µg/mL (≈ 26.7 µM) | < 5.00 | 8.00 | < 5.00 |  |
| NCc1ccc(CNC(=O)[C@H](Cc2ccccc2)NC(=O)C(Cc2ccc(OCC(F)(F)F)cc2)NC(=O)c2ccccc2)cc1 (stereo partly drawn) [Example 201, N-{(R,S)-1-[(S)-1-(4-Aminomethyl-benzylcarbamoyl)-2-phenyl-ethylcarbamoyl]-2-[4-(2,2,2-trifluoro-ethoxy)-phenyl]-ethyl}-benzamide] |  | < 5.00 | 7.92 | < 5.00 |  |

Further lines, with some results ahead:

| solubility at 1 h [2] | pIC50 [3] | pIC50 ([4]; substrate H-DPro-Phe-Arg-AFC) | pIC50 ([7]; Table 13) | Compound | further results |
| --- | --- | --- | --- | --- | --- |
| 0.01 µg/mL (≈ 0.0154 µM) | < 5.00 | 6.76 | < 5.00 | CCOc1ccc(C[C@@H](NC(=O)c2ccc(Cl)c(Cl)c2)C(=O)N[C@@H](Cc2ccccc2)C(=O)NCc2ccc(CN)cc2)cc1 [Example 93, N-[(R)-1-[(S)-1-(4-Aminomethyl-benzylcarbamoyl)-2-phenyl-ethylcarbamoyl]-2-(4-ethoxy-phenyl)-ethyl]-3,4-dichloro-benzamide] |  |
| 4.77 µg/mL (≈ 8.14 µM) | < 5.00 | 7.44 | < 5.00 | CCOc1ccc(C[C@@H](NC(=O)c2ccccn2)C(=O)N[C@@H](Cc2cccs2)C(=O)NCc2ccc(CN)cc2)cc1 [Example 157, Pyridine-2-carboxylic acid [(R)-1-[(S)-1-(4-aminomethyl-benzylcarbamoyl)-2-thiophen-2-yl-ethylcarbamoyl]-2-(4-ethoxy-phenyl)-ethyl]-amide] |  |
|  | < 5.00 | 7.49 | 5.00 | CCOc1ccc(C[C@@H](NC(=O)c2sccc2Cl)C(=O)N(C)[C@@H](Cc2ccccc2)C(=O)NCc2ccc(CN)cc2)cc1 [Example 196, 3-Chloro-thiophene-2-carboxylic acid [(R)-1-{[(S)-1-(4-aminomethyl-benzylcarbamoyl)-2-phenyl-ethyl]-methyl-carbamoyl}-2-(4-ethoxy-phenyl)-ethyl]-amide] |  |
|  | < 5.00 | 8.15 | 5.04 | CCOc1ccc(C[C@@H](NC(=O)c2sccc2Cl)C(=O)N[C@H](C(=O)NCc2ccc(CN)cc2)[C@H](O)c2ccccc2)cc1 [Example 198, 3-Chloro-thiophene-2-carboxylic acid [(R)-1-[(1S,2R)-1-(4-aminomethyl-benzylcarbamoyl)-2-hydroxy-2-phenyl-ethylcarbamoyl]-2-(4-ethoxy-phenyl)-ethyl]-amide] |  |
